Measurements reported in US7795290B2 (Genentech, Inc., priority 2004, dated 2010).

Each compound was assayed against T1, AKT1 (Homo sapiens, UniProt P31749) (assay: HTS ATP-utilizing enzyme assay, off-chip mobility-shift (Caliper HTS 250)). Settings: kinase named = inhibitory activity/selectivity; test compound 10 μM; active = greater than three-sigma from mean.
T1 construct: purchased Upstate 14-276
Type: biochemical
Excerpt: The following procedures describe the reagent and plate preparation for a HTS of an ATP-utilizing enzyme, such as a protein kinase, run in an off-chip mobility-shift assay format. The following provides an HTS protocol for running a protein kinase HTS screen on a Caliper HTS 250 microfluidics system. The following parameters are dependent on the protein kinase used and can be determined by one skilled in the art as part of a typical assay development process. For example, the peptide substrate used can be identified from the current literature, by screening a peptide library of potential protein kinase substrates, or by other applicable means accepted in the field.
The following table provides typical screen assay parameters appropriate for a Caliper HTS 250 microfluidics system used to assay AKT1. Parameters used to assay other protein kinases can be determined by one skilled in the art.
Assays to determine the kinase inhibitory activity of chemical entities of the present disclosure were performed using a Caliper HTS 250 microfluidics device, Greiner U-bottom assay plates, a Multidrop for transfer of reagents, and Biomek FX (AMNCBM03) software. Initially, 2.4 μL of a 1 mM solution of a test compound in 100% DMSO was added to a well of the Greiner U-bottom plate. A single Greiner U-bottom plate having 24×16 wells could include multiple test compounds. […] Using the Biomek FX, 10 μL of 0.5 M EDTA was added by the span-8 to wells, indicated as 100% Control and 2.4 μL of 100% DMSO was added by the span-8 to wells, indicated as 0% Control. […] The total reaction volume in each well was 25 μL, and the concentration of the test compound was 10 μM. The assay plate was incubated for 2.5 hrs at 20° C. to 22° C. […] The inhibition of the ATP-utilizing enzyme, such as a particular protein kinase, was determined by measuring the ratio of the peptide substrate to phosphorylated product for each well of the assay plate using the Caliper HTS 250 system.
The use of three-sigma statistical limits represents a conservative method for declaring potential hits among targets. The three-sigma activity, as well as the mean population activity, can be different for each target enzyme.
Each chemical entity listed in Table 2 was tested for protein kinase inhibitory activity according to the biological assays and definitions of protein kinase inhibitory activity as described herein.

T1 sequence (P31749 whole entry): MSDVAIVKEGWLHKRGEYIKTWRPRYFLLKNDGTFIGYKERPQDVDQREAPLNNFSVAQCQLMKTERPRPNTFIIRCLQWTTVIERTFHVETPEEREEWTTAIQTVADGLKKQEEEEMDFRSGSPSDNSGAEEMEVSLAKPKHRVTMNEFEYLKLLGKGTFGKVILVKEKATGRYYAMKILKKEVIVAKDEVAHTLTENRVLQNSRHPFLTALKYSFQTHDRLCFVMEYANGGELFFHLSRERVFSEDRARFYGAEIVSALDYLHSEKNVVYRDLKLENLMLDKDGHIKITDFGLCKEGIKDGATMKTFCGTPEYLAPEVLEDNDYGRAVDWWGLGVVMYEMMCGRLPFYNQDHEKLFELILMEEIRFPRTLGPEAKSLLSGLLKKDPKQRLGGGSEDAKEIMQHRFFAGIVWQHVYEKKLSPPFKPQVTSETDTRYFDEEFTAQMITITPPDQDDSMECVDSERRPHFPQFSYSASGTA

| Structure (SMILES) | Activity |
| --- | --- |
| O=C(NCCO)C1CCCN(C(=O)CCN(C(=O)c2cccs2)c2nc(-c3cc4ccccc4o3)cs2)C1 (stereo not drawn) [1-(3-(N-(4-(benzofuran-2-yl)thiazol-2-yl)thiophene-2-carboxamido)propanoyl)-N-(2-hydroxyethyl)piperidine-3-carboxamide] | AKT1 |
| NC(=O)C1CCCCN1C(=O)CCN(C(=O)c1cccs1)c1nc(-c2cc3ccccc3o2)cs1 (stereo not drawn) [1-(3-(N-(4-(benzofuran-2-yl)thiazol-2-yl)thiophene-2-carboxamido)propanoyl)piperidine-2-carboxamide] | AKT1 |
| NC(=O)C1CCCN(C(=O)CCN(C(=O)c2cccs2)c2nc(-c3cc4ccccc4o3)cs2)C1 (stereo not drawn) [1-(3-(N-(4-(benzofuran-2-yl)thiazol-2-yl)thiophene-2-carboxamido)propanoyl)piperidine-3-carboxamide] | AKT1 |
| O=C(O)C1CCCN(C(=O)CCN(C(=O)c2cccs2)c2nc(-c3cc4ccccc4o3)cs2)C1 (stereo not drawn) [1-(3-(N-(4-(benzofuran-2-yl)thiazol-2-yl)thiophene-2-carboxamido)propanoyl)piperidine-3-carboxylic acid] | AKT1 |
| NC(=O)C1CCCN1C(=O)CCN(C(=O)c1cccs1)c1nc(-c2cc3ccccc3o2)cs1 (stereo not drawn) [1-(3-(N-(4-(benzofuran-2-yl)thiazol-2-yl)thiophene-2-carboxamido)propanoyl)pyrrolidine-2-carboxamide] | AKT1 |
| CCN(CC)C(=O)C1CCCN(CCCN(C(=O)c2cccs2)c2nc(-c3cc4ccccc4o3)cs2)C1 (stereo not drawn) [1-(3-(N-(4-(benzofuran-2-yl)thiazol-2-yl)thiophene-2-carboxamido)propyl)-N,N-diethylpiperidine-3-carboxamide] | AKT1 |
| NC(=O)C1CCCCN1CCCN(C(=O)c1cccs1)c1nc(-c2cc3ccccc3o2)cs1 (stereo not drawn) [1-(3-(N-(4-(benzofuran-2-yl)thiazol-2-yl)thiophene-2-carboxamido)propyl)piperidine-2-carboxamide] | AKT1 |
| NC(=O)C1CCCN(CCCN(C(=O)c2cccs2)c2nc(-c3cc4ccccc4o3)cs2)C1 (stereo not drawn) [1-(3-(N-(4-(benzofuran-2-yl)thiazol-2-yl)thiophene-2-carboxamido)propyl)piperidine-3-carboxamide] | AKT1 |
| NC(=O)C1CCCN1CCCN(C(=O)c1cccs1)c1nc(-c2cc3ccccc3o2)cs1 (stereo not drawn) [1-(3-(N-(4-(benzofuran-2-yl)thiazol-2-yl)thiophene-2-carboxamido)propyl)pyrrolidine-2-carboxamide] | AKT1 |
| O=C(NCCO)C1CCN(C(=O)CCCN(C(=O)c2cccs2)c2nc(-c3cc4ccccc4o3)cs2)CC1 [1-(4-(N-(4-(benzofuran-2-yl)thiazol-2-yl)thiophene-2-carboxamido)butanoyl)-N-(2-hydroxyethyl)piperidine-4-carboxamide] | AKT1 |
| CNC(=O)C1CCN(C(=O)CCCN(C(=O)c2cccs2)c2nc(-c3cc4ccccc4o3)cs2)CC1 [1-(4-(N-(4-(benzofuran-2-yl)thiazol-2-yl)thiophene-2-carboxamido)butanoyl)-N-methylpiperidine-4-carboxamide] | AKT1 |
| NC(=O)C1CCCN(C(=O)CCCN(C(=O)c2cccs2)c2nc(-c3cc4ccccc4o3)cs2)C1 (stereo not drawn) [1-(4-(N-(4-(benzofuran-2-yl)thiazol-2-yl)thiophene-2-carboxamido)butanoyl)piperidine-3-carboxamide] | AKT1 |
| NC(=O)C1CCN(C(=O)CCCN(C(=O)c2cccs2)c2nc(-c3cc4ccccc4o3)cs2)CC1 [1-(4-(N-(4-(benzofuran-2-yl)thiazol-2-yl)thiophene-2-carboxamido)butanoyl)piperidine-4-carboxamide] | AKT1 |
| NC(=O)C1CCCN1C(=O)CCCN(C(=O)c1cccs1)c1nc(-c2cc3ccccc3o2)cs1 (stereo not drawn) [1-(4-(N-(4-(benzofuran-2-yl)thiazol-2-yl)thiophene-2-carboxamido)butanoyl)pyrrolidine-2-carboxamide] | AKT1 |
| CC(=O)N1CCC(C(=O)NCCCN(C(=O)c2cccs2)c2nc(-c3cc4ccccc4o3)cs2)CC1 [1-acetyl-N-(3-(N-(4-(benzofuran-2-yl)thiazol-2-yl)thiophene-2-carboxamido)propyl)piperidine-4-carboxamide] | AKT1 |
| O=C(Nc1nncs1)c1csc(N(CCCN2CCOCC2)C(=O)c2cccs2)n1 [2-(N-(3-morpholinopropyl)thiophene-2-carboxamido)-N-(1,3,4-thiadiazol-2-yl)thiazole-4-carboxamide] | AKT1 |
| O=C(Nc1nccs1)c1csc(N(CCCN2CCOCC2)C(=O)c2cccs2)n1 [2-(N-(3-morpholinopropyl)thiophene-2-carboxamido)-N-(thiazol-2-yl)thiazole-4-carboxamide] | AKT1 |

The next lines start with the values.

| Activity | Structure (SMILES) |
| --- | --- |
| AKT1 | CNC(=O)C1CCN(CCCN(C(=O)c2cccs2)c2nc(-c3cc4ccccc4o3)cs2)CC1 [1-(3-(N-(4-(benzofuran-2-yl)thiazol-2-yl)thiophene-2-carboxamido)propyl)-N-methylpiperidine-4-carboxamide] |
| AKT1 | NC(=O)C1CCN(CCCN(C(=O)c2cccs2)c2nc(-c3cc4ccccc4o3)cs2)CC1 [1-(3-(N-(4-(benzofuran-2-yl)thiazol-2-yl)thiophene-2-carboxamido)propyl)piperidine-4-carboxamide] |
| AKT1 | Cn1cccc1C(=O)N(CCCN1CCCC1=O)c1nc(-c2cc(-c3ccccc3)no2)cs1 [1-methyl-N-(3-(2-oxopyrrolidin-1-yl)propyl)-N-(4-(3-phenylisoxazol-5-yl)thiazol-2-yl)-1H-pyrrole-2-carboxamide] |
| AKT1 | Cn1cccc1C(=O)N(CCCN1CCOCC1)c1nc(-c2cc(-c3ccccc3)no2)cs1 [1-methyl-N-(3-morpholinopropyl)-N-(4-(3-phenylisoxazol-5-yl)thiazol-2-yl)-1H-pyrrole-2-carboxamide] |
| AKT1 | O=C(O)COc1cccc(-c2csc(N(CCCN3CCOCC3)C(=O)c3cccs3)n2)c1 [2-(3-(2-(N-(3-morpholinopropyl)thiophene-2-carboxamido)thiazol-4-yl)phenoxy)acetic acid] |
| AKT1 | O=C(O)CNC(=O)c1ccc(-c2csc(N(CCCN3CCOCC3)C(=O)c3cccs3)n2)cc1 [2-(4-(2-(N-(3-morpholinopropyl)thiophene-2-carboxamido)thiazol-4-yl)benzamido)acetic acid] |
| AKT1 | O=C(O)COc1ccc(-c2csc(N(CCCN3CCOCC3)C(=O)c3cccs3)n2)cc1 [2-(4-(2-(N-(3-morpholinopropyl)thiophene-2-carboxamido)thiazol-4-yl)phenoxy)acetic acid] |
| AKT1 | O=C(O)Cc1ccc(-c2csc(N(CCCN3CCOCC3)C(=O)c3cccs3)n2)s1 [2-(5-(2-(N-(3-morpholinopropyl)thiophene-2-carboxamido)thiazol-4-yl)thiophen-2-yl)acetic acid] |
| AKT1 | COc1ccc(-c2csc(N(CCCN3CCOCC3)C(=O)c3ccccc3F)n2)cc1 [2-fluoro-N-(4-(4-methoxyphenyl)thiazol-2-yl)-N-(3-morpholinopropyl)benzamide] |
| AKT1 | O=C(O)c1cccc(-c2csc(N(CCCN3CCOCC3)C(=O)c3cccs3)n2)c1 [3-(2-(N-(3-morpholinopropyl)thiophene-2-carboxamido)thiazol-4-yl)benzoic acid] |
